Columns and labels:
Type in all cases: biochemical
GFP-WT-PARP10 = target: T1, GFP-WT-PARP10 (Homo sapiens, UniProt Q53GL7); conditions: up to 100 μM; immunoprecipitated from HEK 293T cells, 6-alkyne-NAD+ substrate
T1 sequence (Q53GL7 1-1025): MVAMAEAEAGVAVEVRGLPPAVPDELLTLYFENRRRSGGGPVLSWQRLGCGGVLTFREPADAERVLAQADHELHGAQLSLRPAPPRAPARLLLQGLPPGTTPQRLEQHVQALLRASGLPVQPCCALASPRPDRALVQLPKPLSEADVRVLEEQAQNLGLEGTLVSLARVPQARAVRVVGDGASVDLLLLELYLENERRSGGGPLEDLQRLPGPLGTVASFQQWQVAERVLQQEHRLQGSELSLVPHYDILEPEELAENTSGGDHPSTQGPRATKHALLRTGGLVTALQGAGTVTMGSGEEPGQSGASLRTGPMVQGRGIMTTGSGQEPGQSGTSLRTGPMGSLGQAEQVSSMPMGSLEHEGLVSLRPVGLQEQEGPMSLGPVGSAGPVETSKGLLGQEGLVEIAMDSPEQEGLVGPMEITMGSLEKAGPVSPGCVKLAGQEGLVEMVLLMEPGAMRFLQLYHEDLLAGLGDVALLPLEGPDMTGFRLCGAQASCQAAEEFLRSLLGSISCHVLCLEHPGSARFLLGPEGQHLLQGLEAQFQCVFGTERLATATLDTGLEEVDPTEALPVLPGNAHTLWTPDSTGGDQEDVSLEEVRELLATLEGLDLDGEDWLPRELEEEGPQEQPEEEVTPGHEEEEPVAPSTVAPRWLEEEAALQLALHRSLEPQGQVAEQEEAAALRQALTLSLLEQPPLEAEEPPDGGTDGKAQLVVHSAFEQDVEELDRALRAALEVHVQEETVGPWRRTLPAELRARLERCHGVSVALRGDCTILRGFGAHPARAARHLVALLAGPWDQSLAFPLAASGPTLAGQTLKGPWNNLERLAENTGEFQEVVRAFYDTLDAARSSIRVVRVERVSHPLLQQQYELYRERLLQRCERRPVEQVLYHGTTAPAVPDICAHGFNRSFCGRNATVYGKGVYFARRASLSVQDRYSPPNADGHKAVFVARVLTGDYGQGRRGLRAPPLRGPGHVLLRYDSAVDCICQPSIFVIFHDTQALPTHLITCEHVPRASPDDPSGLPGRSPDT

GFP-LG-PARP10 = GFP-LG-PARP10 (Homo sapiens, UniProt Q53GL7, L926G); conditions: immunoprecipitated from HEK 293T cells, 6-alkyne-NAD+ substrate
Chain of GFP-LG-PARP10 (Q53GL7 whole entry L926G): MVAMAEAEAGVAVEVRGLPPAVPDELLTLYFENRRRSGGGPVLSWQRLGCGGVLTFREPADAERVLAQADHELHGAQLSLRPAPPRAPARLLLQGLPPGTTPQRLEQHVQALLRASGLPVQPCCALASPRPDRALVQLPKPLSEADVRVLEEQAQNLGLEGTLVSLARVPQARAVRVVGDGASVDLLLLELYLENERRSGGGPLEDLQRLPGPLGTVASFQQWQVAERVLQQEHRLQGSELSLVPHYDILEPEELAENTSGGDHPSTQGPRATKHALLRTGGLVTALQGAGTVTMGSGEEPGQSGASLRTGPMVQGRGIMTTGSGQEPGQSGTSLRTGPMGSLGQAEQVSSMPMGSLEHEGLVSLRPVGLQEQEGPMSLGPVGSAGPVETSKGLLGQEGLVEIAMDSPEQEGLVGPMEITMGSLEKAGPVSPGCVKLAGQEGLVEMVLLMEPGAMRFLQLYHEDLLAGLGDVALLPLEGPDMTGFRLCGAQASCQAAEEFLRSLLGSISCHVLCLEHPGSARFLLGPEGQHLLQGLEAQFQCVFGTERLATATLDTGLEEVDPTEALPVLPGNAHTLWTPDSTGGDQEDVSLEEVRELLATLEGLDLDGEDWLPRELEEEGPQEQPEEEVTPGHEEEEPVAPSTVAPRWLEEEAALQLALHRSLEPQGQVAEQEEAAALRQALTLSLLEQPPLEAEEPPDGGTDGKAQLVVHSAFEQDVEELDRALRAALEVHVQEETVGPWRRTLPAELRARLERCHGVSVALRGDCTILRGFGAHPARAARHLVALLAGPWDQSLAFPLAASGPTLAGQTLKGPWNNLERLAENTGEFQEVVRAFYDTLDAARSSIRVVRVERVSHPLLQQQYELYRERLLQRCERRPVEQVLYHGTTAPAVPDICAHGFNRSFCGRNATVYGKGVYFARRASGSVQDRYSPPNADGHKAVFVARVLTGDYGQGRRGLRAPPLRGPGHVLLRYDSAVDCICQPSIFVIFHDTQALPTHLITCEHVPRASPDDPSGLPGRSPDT

LG-PARP10cat = LG-PARP10cat (Homo sapiens, UniProt Q53GL7, L926G); conditions: for increase in potency against LG-PARP10cat compared to 1: compared to parent dq scaffold 1
Chain of LG-PARP10cat (Q53GL7 806-1025 L926G): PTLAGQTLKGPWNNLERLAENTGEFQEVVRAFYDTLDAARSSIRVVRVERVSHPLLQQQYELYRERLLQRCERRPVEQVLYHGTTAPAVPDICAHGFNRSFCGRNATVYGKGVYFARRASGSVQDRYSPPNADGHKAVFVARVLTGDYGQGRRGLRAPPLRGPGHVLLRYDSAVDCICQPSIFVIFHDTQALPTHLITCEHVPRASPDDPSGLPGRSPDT

Compound | effect on auto-ADP-ribosylation of GFP-WT-PARP10 (GFP-WT-PARP10) | inhibition of auto-ADP-ribosylation of GFP-LG-PARP10 (GFP-LG-PARP10) | selectivity for LG-PARP10cat versus WT-PARP10cat (LG-PARP10cat; LG- versus WT-PARP10cat) | increase in potency against LG-PARP10cat compared to 1 (LG-PARP10cat)
O=C1NCCc2ccc(Br)cc21 [Compound 4, 7-Br-dq] | unaffected | inhibited the auto-ADP-ribosylation of GFP-LG-PARP10 in a dose-dependent manner | greater than 10 fold | –
COc1ccc2c(c1)C(=O)NCC2 [Compound 8] | – | – | – | did not exhibit increased potency
O=C1NCCc2ccc(C(F)(F)F)cc21 [Compound 6] | – | – | – | 2 fold
O=C1NCCc2ccc(O)cc21 [Compound 7] | – | – | – | did not exhibit increased potency
Cc1ccc2c(c1)C(=O)NCC2 [Compound 5] | – | – | – | did not exhibit increased potency
